What was measured:
HCT116 = assay: MTS cell proliferation test, HCT116; conditions: Homo sapiens, HCT-116, 72 h, read-out: HCT116 IC50 (Mean ± SD);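 note: absorbance at 490 nm after MTS/PMS addition, survival relative to untreated cells (100%) after blank subtraction, IC50 from the concentration–survival curve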
Experimental: (§1) The disclosed compounds and their pharmaceutically accepted salts are assayed for their anti-cancer activities by the following method. • MTS Cell Proliferation Test 1. Materials 1.1. […] Cell Lines
(§2) Two cell lines were used, both HCT116 and MDA-MB-231 were purchased from USATCC.
(§3) MTS reagent powder was purchased from Promega. Cat #G1111; PMS from Sigma, Cat #P8625; cell culture medium RPMI-1640, Cat #10040562R; DMEM, Cat #0013CVR; 100× sodium pyruvate solution Cat #136007; 100× Penicillin Streptomycin Solution, Cat ⊇15140122; 100× Penicillin Streptomycin Solution, Cat #15140122; 0.25% Trypsin (Parenzyme), Cat #25200-072; and fetal bovine serum, Cat #16000-044 were all purchased from Life Technologies.
(§4) • Thermo incubator (Format 371); • Heat force Biosafety Cabinet (HF sage 1500); • BioTek Microplate Reader (Synergy 2). 2. […] 2.3 Procedure of MTS Methods:
(§5) Cells at logarithmic phase were harvested, then digested with 0.25% trypsin, and re-suspense in complete growth medium. 150 uL/well of HCT-116 and MDA-MB-231 were dispensed into 96 well culture plates with 2.5×10^3 cell/well. The plates were pre-incubated in a humidified CO2 incubator at 37° C., 5% CO2) for 24 hours. 50 uL of various concentration of test compounds and reference compound were added. A negative control (only cells and culture medium without compound) and blank control (only culture medium without cells) were set at the same time. The plates were incubated for 72 hr in the incubator. The MTS/PMS solution was prepared and added into 96 well plates according to the test instruction by Promega Corporation. The plates were incubated again for some time, then the absorbance at 490 nm were measured using Biotek Instruments, Inc microplate reader and the cell survival rates calculated. Cell Survival Rate(%)=(At−Ab)/(Ac−Ab)×100% where, • At=Absorbance value of test compound • Ab=Absorbance value of blank • Ac=Absorbance value of control 3. Results

MDA-MB-231 = assay: MTS cell proliferation test, MDA-MB-231; conditions: Homo sapiens, MDA-MB-231, 72 h, read-out: MDA231 IC50 (Mean ± SD);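 note: cells settled 24 h before compound addition, MTS absorbance at 490 nm, survival as percent of untreated cells after blank subtraction, IC50 fitted from survival versus concentration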
Experimental: as §1, §2, §3, §4, §5

Compound | IC50 (HCT116) | IC50 (MDA-MB-231)
O=C1C2=C(CCN(Cc3cccc(Br)c3)C2)N2CCN=C2N1Cc1ccccc1F [Compound I-53, 7-(3-bromobenzyl)-4-(2-fluorobenzyl)-1,2,6,7,8,9-hexahydroimidazo[1,2-a]pyrido[3,4-e]pyrimidin-5(4H)-one] | 700 ± 1 nM | 730 ± 2 nM
Cc1cccc(CN2C(=O)C3=C(CCN(Cc4ccccc4)C3)N3CCN=C23)c1 [Compound I-2, 7-benzyl-4-(3-methylbenzyl)-1,2,6,7,8,9-hexahydroimidazo[1,2-a]pyrido[3,4-e]pyrimidin-5(4H)-one] | 230 ± 4 nM | 240 nM
Cc1ccccc1CN1C(=O)C2=C(CCN(Cc3cccc(C(F)(F)F)c3)C2)N2CCN=C12 [Compound I-9, 4-(2-methylbenzyl)-7-(3-(trifluoromethyl)benzyl)-1,2,6,7,8,9-hexahydroimidazo[1,2-a]pyrido[3,4-e]pyrimidin-5(4H)-one] | 710 ± 1 nM | 740 nM
Cc1ccccc1CN1CCC2=C(C1)C(=O)N(Cc1ccccc1F)C1=NCCN12 [Compound I-21, 4-(2-fluorobenzyl)-7-(2-methylbenzyl)-1,2,6,7,8,9-hexahydroimidazo[1,2-a]pyrido[3,4-e]pyrimidin-5(4H)-one] | 2120 ± 39 nM | 2150 ± 34 nM
O=C1C2=C(CCN(Cc3ccccc3F)C2)N2CCN=C2N1Cc1ccccc1C(F)(F)F [Compound I-12, 7-(2-fluorobenzyl)-4-(2-(trifluoromethyl)benzyl)-1,2,6,7,8,9-hexahydroimidazo[1,2-a]pyrido[3,4-e]pyrimidin-5(4H)-one] | 2040 ± 29 nM | 2070 ± 1 nM
Cc1cccc(CN2CCC3=C(C2)C(=O)N(Cc2ccccc2C(F)(F)F)C2=NCCN23)c1 [Compound I-31, 7-(3-methylbenzyl)-4-(2-(trifluoromethyl)benzyl)-1,2,6,7,8,9-hexahydroimidazo[1,2-a]pyrido[3,4-e]pyrimidin-5(4H)-one] | 1250 ± 122 nM | 1650 ± 50 nM
O=C1C2=C(CCN(Cc3cccc(Cl)c3)C2)N2CCN=C2N1Cc1ccccc1Cl [Compound I-36, 4-(2-chlorobenzyl)-7-(3-chlorobenzyl)-1,2,6,7,8,9-hexahydroimidazo[1,2-a]pyrido[3,4-e]pyrimidin-5(4H)-one] | 720 nM | 740 ± 1 nM
Cc1ccccc1CN1C(=O)C2=C(CCN(Cc3ccccc3F)C2)N2CCN=C12 [Compound I-15, 7-(2-fluorobenzyl)-4-(2-methylbenzyl)-1,2,6,7,8,9-hexahydroimidazo[1,2-a]pyrido[3,4-e]pyrimidin-5(4H)-one] | 680 ± 3 nM | 730 ± 4 nM
COc1ccc(CN2CCC3=C(C2)C(=O)N(Cc2ccccc2C)C2=NCCN23)cc1 [Compound I-7, 7-(4-methoxybenzyl)-4-(2-methylbenzyl)-1,2,6,7,8,9-hexahydroimidazo[1,2-a]pyrido[3,4-e]pyrimidin-5(4H)-one] | 2090 ± 92 nM | 1880 ± 78 nM
O=C1C2=C(CCN(Cc3ccccc3Br)C2)N2CCN=C2N1Cc1ccccc1F [Compound I-16, 7-(2-bromobenzyl)-4-(2-fluorobenzyl)-1,2,6,7,8,9-hexahydroimidazo[1,2-a]pyrido[3,4-e]pyrimidin-5(4H)-one] | 2160 ± 13 nM | 3070 ± 752 nM
Cc1ccccc1CN1C(=O)C2=C(CCN(Cc3ccc(N4CCOCC4)cc3)C2)N2CCN=C12 [Compound I-8, 4-(2-methylbenzyl)-7-(4-morpholinobenzyl)-1,2,6,7,8,9-hexahydroimidazo[1,2-a]pyrido[3,4-e]pyrimidin-5(4H)-one] | 1770 ± 230 nM | 1820 ± 241 nM
O=C1C2=C(CCN(Cc3ccccc3)C2)N2CCN=C2N1Cc1cccc(Cl)c1 [Compound I-1, 7-Benzyl-4-(3-chlorobenzyl)-1,2,6,7,8,9-hexahydroimidazo[1,2-a]pyrido[3,4-e]pyrimidin-5(4H)-one] | 230 ± 9 nM | 240 nM
Cc1ccccc1CN1C(=O)C2=C(CCN(Cc3cccc(Br)c3)C2)N2CCN=C12 [Compound I-29, 7-(3-bromobenzyl)-4-(2-methylbenzyl)-1,2,6,7,8,9-hexahydroimidazo[1,2-a]pyrido[3,4-e]pyrimidin-5(4H)-one] | 720 ± 1 nM | 740 ± 2 nM
O=C1C2=C(CCN(Cc3ccccc3)C2)N2CCN=C2N1Cc1ccc(Cl)c(C(F)(F)F)c1 [Compound I-42, 7-benzyl-4-(4-chloro-3-(trifluoromethyl)benzyl)-1,2,6,7,8,9-hexahydroimidazo[1,2-a]pyrido[3,4-e]pyrimidin-5(4H)-one] | 730 nM | 1070 ± 10 nM
O=C1C2=C(CCN(Cc3ccccc3Br)C2)N2CCN=C2N1Cc1ccccc1C(F)(F)F [Compound I-17, 7-(2-bromobenzyl)-4-(2-(trifluoromethyl)benzyl)-1,2,6,7,8,9-hexahydroimidazo[1,2-a]pyrido[3,4-e]pyrimidin-5(4H)-one] | 2020 ± 22 nM | 2140 ± 31 nM
O=C1C2=C(CCN(Cc3ccccc3)C2)N2CCN=C2N1Cc1ccccc1Br [Compound I-5, 7-benzyl-4-(2-bromobenzyl)-1,2,6,7,8,9-hexahydroimidazo[1,2-a]pyrido[3,4-e]pyrimidin-5(4H)-one] | 5960 ± 1350 nM | 6810 ± 57 nM
Cc1ccccc1CN1CCC2=C(C1)C(=O)N(Cc1ccccc1C(F)(F)F)C1=NCCN12 [Compound I-22, 7-(2-methylbenzyl)-4-(2-(trifluoromethyl)benzyl)-1,2,6,7,8,9-hexahydroimidazo[1,2-a]pyrido[3,4-e]pyrimidin-5(4H)-one] | 2030 ± 9 nM | 2130 ± 8 nM
O=C1C2=C(CCN(Cc3ccccc3)C2)N2CCN=C2N1Cc1ccc(C(F)(F)F)cc1 [Compound I-39, 7-benzyl-4-(4-(trifluoromethyl)benzyl)-1,2,6,7,8,9-hexahydroimidazo[1,2-a]pyrido[3,4-e]pyrimidin-5(4H)-one] | 30 nM | 50 nM
Cc1ccccc1CN1C(=O)C2=C(CCN(Cc3ccccc3)C2)N2CCN=C12 [TIC10, 7-benzyl-4-(2-methylbenzyl)-1,2,6,7,8,9-hexahydroimidazo[1,2-a]pyrido[3,4-e]pyrimidin-5(4H)-one, reference compound] | 1060 ± 240 nM | 790 ± 80 nM
O=C1C2=C(CN(Cc3ccccc3)C2)N2CCN=C2N1Cc1ccc(Cl)cc1Cl [Compound I-56, 2-benzyl-5-(2,4-dichlorobenzyl)-2,3,7,8-tetrahydro-1H-imidazo[1,2-a]pyrrolo[3,4-e]pyrimidin-4(5H)-one] | 2050 ± 30 nM | 2050 ± 40 nM
Cc1ccccc1CN1C(=O)C2=C(CCN(Cc3ccccc3Cl)C2)N2CCN=C12 [Compound I-27, 7-(2-chlorobenzyl)-4-(2-methylbenzyl)-1,2,6,7,8,9-hexahydroimidazo[1,2-a]pyrido[3,4-e]pyrimidin-5(4H)-one] | 2130 ± 45 nM | 2260 ± 18 nM
